Measured values taken from patent publication US11041010B2, “Hybrid peptidomimetics for use in neuropathic pain” (Uniwersytet Warszawski, priority 2017, dated 2021).
Positions of bridges follow the written chain, without caps; N, C: chain ends. Non-standard residues stand in square brackets, D forms with d. No end group written: not given here. d2Nal = N[C@H](Cc1ccc2ccccc2c1)C(=O)O; Nle = CCCC[C@H](N)C(=O)O; Ahx = NCCCCCC(=O)O; βAla = NCCC(=O)O

Columns and labels:
[1] = tested on: CCI mice (mouse model of neuropathic pain); assay: Mouse model of neuropathic pain (CCI), von Frey and cold plate tests taken together, intrathecal administration; type: in vivo; settings: for analgesic activity of the reference compounds (mice, first stage): reason why no ED50 was calculated; for analgesic activity in neuropathic pain (mice): CCI mice, von Frey and cold plate tests, FIGS. 1-7 (B, C)
Protocol: (§1) Albino Swiss mice were subjected to a loose unilateral ligation of the right sciatic nerve (a chronic constriction injury, CCI) according to the model developed by Bennett and Xie, Pain 33, 87-107, […]. […] The tests permitted to determine the analgesic efficiency of the novel compounds in the model of neuropathic pain. In the control mice (due to the absence of hypersensitivity, which characterizes neuropathic pain) at the same time points, a test of tail flick was conducted to determine pain threshold in the acute pain after intrathecal administration of the hybrid peptidomimetics.

[2] = tested on: healthy mice (control mice); assay: Tail flick test, acute pain threshold in control mice after intrathecal administration; type: in vivo, mouse; settings: for analgesic activity in control mice: healthy mice, FIGS. 1-7 (A)
Protocol: as §1
(§2) The results were presented for doses in micrograms, at which a half (50%) of the maximum effect (ED50) is reached. Calculation of the ED50 value requires clear dose-dependent effects.

[3] = tested on: CCI mice (mouse model of neuropathic pain); assay: Von Frey test (allodynia) in mice with sciatic nerve injury (CCI), intrathecal administration; type: in vivo; settings: mice in the neuropathic pain model, range in brackets
Protocol: as §1, §2

[4] = tested on: CCI mice (mouse model of neuropathic pain); assay: Cold plate test (hyperalgesia) in mice with sciatic nerve injury (CCI), intrathecal administration; type: in vivo; settings: mice in the neuropathic pain model, cold plate 2° C., range in brackets
Protocol: as §1, §2

[5] = tested on: CCI mice (mouse model of neuropathic pain); assay: Mouse model of neuropathic pain (CCI), von Frey and cold plate tests after intravenous administration; type: in vivo; settings: CCI mice, 15, 30 and 120 min, FIGS. 8-9
Protocol: In the second stage of the pharmacological studies, the effect of the peripheral, intravenous administration of the hybrid peptidomimetics according to the invention (UW3, UW5) on the sensitivity to a mechanical stimulus (A) (von Frey test) and thermal stimulus (B) (cold plate test) threshold compared to a control group receiving water for injection was tested on mice in the neuropathy model (FIGS. 8 and 9). The studies were conducted at days 7-14 from the CCI procedure on mice at 15, 30 and 120 min after intravenous administration of the hybrid peptidomimetics UW3 and UW5 in the selected doses.

[6] = tested on: healthy rats (control rats); assay: Acute pain threshold in healthy (control) rats after intrathecal administration; type: in vivo; settings: 0.1 μg/5 μl/rat, FIGS. 10-13 (A)
[7] = tested on: CCI rats (rat model of neuropathic pain); assay: Rat model of neuropathic pain (CCI), von Frey and cold plate tests after intrathecal administration; type: in vivo; settings: 0.1 μg/5 μl/rat, FIGS. 10-13 (B, C)
Protocol: Wistar rats were subjected to cannulation for intrathecal administration by a method of Yaksh, T. L., Rudy, T. A., described in Physiol. Behay. 17, 1031-1036, 1976, and seven days after this procedure, a loose unilateral ligation of the right sciatic nerve (a chronic constriction injury, CCI) according to the model developed by Bennett and Xie (1988). After seven days from the CCI procedure, behavioral tests were conducted: the von Frey test and cold plate test to measure hypersensitivity to tactile and thermal stimuli, respectively. Hypersensitivity developed after injury of the nerve to two types of stimuli is a symptom of neuropathy.

Row | Substance | analgesic activity of the reference compounds (mice, first stage) [1] | analgesic activity in control mice [2] | Von Frey test (allodynia) ED50 [3] | Cold plate (hyperalgesia) ED50 [4] | analgesic activity in neuropathic pain (mice) [1] | analgesic efficiency after peripheral, intravenous administration [5] | analgesic activity in healthy (control) rats [6] | analgesic activity in the rat model of neuropathic pain [7] | Control mice Tail flick test ED50 ([2]; control mice, dose giving 50% of maximum effect, range in brackets)
1 | Tyr-D-Ala-Gly-Phe-4AMB-Nle-cyclo[Asp-His-D-Nal(2′)-Arg-Trp-Lys]-NH2 [UW6] | very weak and dose dependency-deprived analgesic activity |  |  |  |  |  |  |  | 
2 | Y[dA]GF[βAla][Nle]DH[d2Nal]RWK-NH2 (lactam 7-12) [UW4] | very weak and dose dependency-deprived analgesic activity |  |  |  |  |  |  |  | 
3 | Y[dA]GF[Ahx][Nle]DH[d2Nal]RWK-NH2 (lactam 7-12) [UW3] |  | limited analgesic efficiency | 0.0004 (0.0001-0.002) μg | 0.008 (0.005-0.01) μg | higher analgesic efficiency | high analgesic efficiency | very weak activity | reaches maximum values | 
4 | Tyr-D-Ala-Gly-Phe-NH2 [UW1, reference compound] |  | show activity | 0.16 (0.1-0.25) μg | 9.3 (2.7-32)^ μg | weakened in both or at least one hypersensitivity determining test |  | weak activity | weak activity | 0.03 (0.02-0.05) μg
5 | Y[dA]GF[dA][Nle]DH[d2Nal]RWK-NH2 (lactam 7-12) [UW2] | very weak and dose dependency-deprived analgesic activity |  |  |  |  |  |  |  | 
6 | Y[dA]GF[Ahx][Ahx][Nle]DH[d2Nal]RWK-NH2 (lactam 8-13) [UW5] |  | limited analgesic efficiency | 0.02 (0.00003-15) μg | 0.2 (0.008-6.5) μg | higher analgesic efficiency | high analgesic efficiency | very weak activity | reaches maximum values | 
